Measurements taken from PubChem BioAssay (NCI).
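Growth conditions: 96-well plates. Treatment: test compound, 48 hours, 5 concentrations. Analysis: linear interpolation between bracketing concentrations; unreached endpoints set to highest concentration. TGI is the concentration that stops growth completely.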

Tests used:
Experiment in all cases: NCI-60 cell line screen, 48 h
MDA-MB-435 = tested on: MDA-MB-435
MDA-MB-231 breast = tested on: MDA-MB-231 breast
A498 renal = tested on: A498 renal
MCF7 breast = tested on: MCF7 breast
DU-145 prostate = tested on: DU-145 prostate
EKVX NSCLC = tested on: EKVX NSCLC
HT29 colon = tested on: HT29 colon
NCI-H460 lung = tested on: NCI-H460 lung
NCI-H226 lung = tested on: NCI-H226 lung
OVCAR-8 ovarian = tested on: OVCAR-8 ovarian
PC-3 prostate = tested on: PC-3 prostate
SF-539 CNS = tested on: SF-539 CNS
SK-OV-3 ovarian = tested on: SK-OV-3 ovarian
A549 NSCLC = tested on: A549 NSCLC

SMILES | TGI (MDA-MB-435) [µM] | TGI (MDA-MB-231 breast) [µM] | TGI (A498 renal) [µM] | TGI (MCF7 breast) [µM] | TGI (DU-145 prostate) [µM] | TGI (EKVX NSCLC) [µM] | TGI (HT29 colon) [µM] | TGI (NCI-H460 lung) [µM] | TGI (NCI-H226 lung) [µM] | TGI (OVCAR-8 ovarian) [µM] | TGI (PC-3 prostate) [µM] | TGI (SF-539 CNS) [µM] | TGI (SK-OV-3 ovarian) [µM] | TGI (A549 NSCLC) [µM]
COc1cc2c(cc1OC)CC(N=[N+]=[N-])c1cc(OC)c(OC)cc1/C=C\2 (stereo unspecified) | > 100 | > 100 | > 100 | > 100 | > 100 | > 100 | > 100 | > 100 | > 100 | 55.8 | > 100 | > 100 | > 100 | > 100
Cc1ccc(N=C2C(=O)C3=C(OC(C)(C)CC3)c3ccccc32)cc1 | 0.346 | 4.1 | 3.81 | 1.23 | 2.59 | 3.35 | 1.15 | 3.96 | > 20.4 |  | 3.52 |  | 3.1 | 3.69
Nc1nc(Cl)cc(Nc2cc(Cl)cc(Cl)c2)n1 | 37.1 | 36.3 | 44.3 | 41.6 | 47.3 | 45.7 | 30.6 | 32.1 | 40.8 | 28.3 | 41.5 | 33.9 | 35.8 | 58.9
CCC(CCCC[C@@H]1CC[C@H]2CC(=O)C[C@@H]12)OC (stereo partly specified) | > 100 | > 100 | > 100 | > 100 | > 100 | > 100 | > 100 | > 100 | > 100 | > 100 | > 100 | > 100 | > 100 | > 100
Cc1cc2c(c(C=NCc3ccccc3)c1)OC1(C=C2)Oc2ccccc2C(=O)N1C (stereo unspecified) | 78.4 | 78.1 | 77.6 | > 100 | 70.4 | 57.6 | 51.7 | 55.4 | 42.9 | 35.6 | 75.3 |  | > 100 | > 100
CC(C)C1OC(=O)/C=C/C=C/C=C/C=C/C=C/CC(O)CC(O)CC(O)CC(O)CC(O)CC(O)CC(O)CC(O)/C=C/C1C (stereo unspecified) | > 100 | > 100 | > 100 | > 100 | > 100 | > 100 | > 100 | > 100 | > 100 | > 100 | > 100 | > 100 |  | > 100
C1=C\CCCCN2C[C@H]3CCCC/C=C\CCCCN4CC[C@@H]([C@H](CCCCCC/1)C4)[C@H](C3)C2 | 3.8 | 3.01 | 17.4 | 4.5 | 17.2 | 22.5 | 5.1 | 3.68 | 37 | 7.74 | 14.5 | 3.9 | 22.8 | 6.95
O=[N+]([O-])c1cccnc1NCC1(CO)CC(Cc2ccccc2)C1 (stereo unspecified) | > 100 | > 100 | > 100 | > 100 | > 100 | > 100 | > 100 | > 100 | > 100 | > 100 | > 100 | > 100 | > 100 | > 100
COCc1cc2c(cc1/C=C/[N+](=O)[O-])OCO2 | 33.2 | 34.7 | 30.8 | 48.9 | 34.4 | 36.5 | 34.6 | 34.3 | 42.9 | 55.2 | 24.6 | 44.9 | 31.9 | 32.2
CC[C@H]1OC([C@H](O)C/C=C\C#C[Si](C)(C)C)C/C=C\C[C@H]1O[Si](C)(C)C(C)(C)C (stereo partly specified) | > 100 | > 100 | > 100 | > 100 | > 100 | > 100 | > 100 | > 100 | > 100 | > 100 | > 100 |  | > 100 | > 100
N/C(=N/n1c(=S)[nH]c2ccccc2c1=O)Nn1c(=S)[nH]c2ccccc2c1=O | > 100 | > 100 | > 100 | > 100 | > 100 | > 100 |  | > 100 | 79 | > 100 | > 100 | 56.2 | > 100 | > 100
CC1C[C@]2(C)C(=O)N(c3ccccc3)C(=N)[C@@H]2N(C)c2ccccc21 (stereo partly specified) | > 100 | > 100 | > 100 | > 100 | > 100 | > 100 | > 100 | > 100 | > 100 | > 100 | > 100 | > 100 |  | > 100
COC(=O)/N=[N+](\[O-])C(c1ccc(OC)cc1)C1CCCCC1 (stereo unspecified) | 26.4 | 32.2 | 25.3 | > 100 | 10.8 | > 44.1 | 5.62 | 7.98 | 26.9 | 38.3 | 22.5 | > 48.3 | 18.2 | 34.9
O=C1CCCCc2cccc(O)c21 | > 100 | > 100 | > 100 | > 100 | > 100 | > 100 | > 100 | > 100 | > 100 | > 100 | > 100 | > 100 | > 100 | 
CCCCOC(=O)C(O)Cc1ccoc1 (stereo unspecified) | > 100 | > 100 | > 100 | > 100 | > 100 | > 100 | > 100 | > 100 | > 100 | > 100 | > 100 | > 100 | > 100 | > 100
CN(C)c1ccc(/C=C/C=C(/C#N)c2ccccc2)cc1 | 6.19 | > 93.8 | 98.5 | > 87.9 | > 100 | > 100 | 40.6 | 83.7 | > 100 | > 91.9 | > 100 | 64.7 | > 74.9 | > 100
